System: SW620 tumor organoids
Experiment: 3D invasion assay
Format: cell-based
Conditions: SW620 tumor organoids treated 72 hours, viable cells incubated further 72 hours
Description: 3D Invasion Assay. SW620 cells were transduced with NucLight®-Red virus (Essen BioSciences, MI) and selected with Zeocin (200 μg/mL). Transduced cells were cultured in RPMI-1640 media supplemented with 5% FBS and allowed to grow in a […] until ˜80% confluent. Afterwards, cells were plated in a CellCarrier Spheroid Ultra-Low Attachment 96-well plate (PerkinElmer, MA) at 5,000 cells/well in 2% Matrigel (Corning, NY) and allowed to grow for 72 hours. Cells were then treated with 10 μM of analogs […] and cultured for an additional 72 hours. Organoids were then collected, half a 96-well plate per treatment condition, spun down at 500 g, washed with PBS, and dissociated with 500 μL of Cultrex® Organoid Harvesting Solution (Trevigen, MD) for 30 min in ice with moderate mixing. Single cells were then spun down at 500 g, the supernatant was discarded, cells were washed with PBS, re-centrifuged, and resuspended in RPMI-1640 media supplemented with 0.5% FBS. Live cells were counted and then plated in an Incucyte® ClearView 96-well cell migration plate (Essen BioSciences, MI) in a 1:1 ratio of Matrigel (Corning, NY) and RPMI-1640 media supplemented with 0.5% FBS and 1% penicillin/streptomycin at 5,000 cells/well. […] Cell invasion was monitored using the Incucyte® ZOOM imaging system (Essen BioSciences, MI) for bottom fluorescence of invading cells per manufacturer's recommendations. […]

`CC(=O)Nc1ccc2c(-c3cc(F)ccc3O)ccnc2c1O` [Analog 7] was tested, and the “invasive potential, in words” value was “inhibit the invasive potential”.
